Data from publication PMC7175277, “Hydroxylamine Analogue of Agmatine: Magic Bullet for Arginine Decarboxylase” (Biomolecules, 2020).

Tests used:
[1] = tested on: DU145 prostate cancer cells; test: Growth of DU145 cells; format: cell-based; conditions: for Growth: 3 days
Description: DU145 prostate cancer cells were cultured in high-glucose Dulbecco’s Modified Eagle’s Medium supplemented with 10% heat-inactivated fetal bovine serum, 2 mM L-glutamine and 50 μg/mL gentamycin (all from Sigma-Aldrich). The cells were plated on 6-well plates and allowed to attach overnight. […] The cells were harvested, and the pellet was mixed with 150 μL of 5% sulphosalicylic acid containing 5 μM diaminoheptane (internal standard). Polyamine analysis was carried out as described previously.

E. coli ADC [2] = target: T1, E. coli ADC (Escherichia coli, UniProt P21170); test: Ultrafiltration of ADC~PLP=AO-Agm complex, then ADC activity assay; format: biochemical; conditions: 15 μM AO-Agm
T1 construct: The kinetic parameters determined for the partially purified biosynthetic ADC from E. coli; endogenous in cells; host or cells: E. coli DH5α (39-53% ammonium sulphate fraction of the lysate, desalted)
T1 sequence (P21170 1-658): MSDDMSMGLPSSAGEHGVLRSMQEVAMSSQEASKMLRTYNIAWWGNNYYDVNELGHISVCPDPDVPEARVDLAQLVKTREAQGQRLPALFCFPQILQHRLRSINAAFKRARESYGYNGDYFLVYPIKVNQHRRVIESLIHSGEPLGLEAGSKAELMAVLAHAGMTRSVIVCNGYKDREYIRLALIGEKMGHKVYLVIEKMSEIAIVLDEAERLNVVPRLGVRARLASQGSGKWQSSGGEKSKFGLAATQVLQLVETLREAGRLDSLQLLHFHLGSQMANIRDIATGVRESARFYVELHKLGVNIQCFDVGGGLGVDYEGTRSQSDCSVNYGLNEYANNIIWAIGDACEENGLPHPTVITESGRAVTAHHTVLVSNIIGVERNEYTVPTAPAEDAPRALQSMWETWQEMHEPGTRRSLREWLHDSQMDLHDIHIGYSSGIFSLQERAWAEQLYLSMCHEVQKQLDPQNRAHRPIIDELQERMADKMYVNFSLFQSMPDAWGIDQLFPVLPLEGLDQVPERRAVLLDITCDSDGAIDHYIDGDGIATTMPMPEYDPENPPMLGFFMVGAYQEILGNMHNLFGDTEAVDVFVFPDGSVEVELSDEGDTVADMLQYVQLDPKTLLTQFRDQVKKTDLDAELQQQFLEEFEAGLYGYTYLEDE
Description: Partially purified enzyme preparation was preincubated for 15 min with 15 μM AO-Agm (which produced 100% inhibition) or H2O (control) and 0.1 mM PLP in the assay buffer. The samples were placed on ice, and half of the reactions were filtered through a 3K cutoff ultrafiltration device (Millipore) and washed twice with 600 μL of buffer containing 50 mM Tris-HCl pH 7.4, 1 mM DTT and 0.1 mM PLP. ADC activity was then assayed.

E. coli ADC [3] = target: T1, E. coli ADC; test: E. coli ADC activity assay (HPLC of agmatine); format: biochemical; conditions: for inhibition at 0.1 µM: AO-Agm 100 nM; for inhibition at 0.1 µM / inhibition at 0.5 µM: no preincubation; for inhibition at 0.5 µM: AO-Agm 500 nM
Description: The purification was performed using a modified procedure of earlier publication. E. coli strain DH5α was grown in Luria-Bertani broth at +37 °C with shaking (200 rpm) overnight. The cells were collected by centrifugation and the pellet was homogenized with Potter-Elvehjem in 10 volumes (w/v) of ice-cold 50 mM Tris-HCl pH 7.4, 1 mM DTT. The cell debris was removed by centrifugation at 12,000 g for 30 min at +4 °C. Solid (NH4)2SO4 was added to the supernatant, and the pellet precipitating between 39% and 53% saturation was separated. The precipitate was resuspended in ice-cold buffer containing 50 mM Tris-HCl pH 7.4 and 1 mM DTT and desalted by passage through Sephadex G-25 column (NAP-10 column, GE Healthcare). The protein concentration was measured with Bio-Rad protein reagent, and the partially purified enzyme preparation was mixed with 20% glycerol and aliquoted for storage at −80 °C.
[…] The ODC reaction mixture contained 50 mM Tris-HCl pH 7.8, 1 mM EDTA, 2.4 mM DTT, 0.1 mM PLP and 20 μg of partially purified enzyme preparation. The mixtures were either preincubated or not preincubated for 15 min at +40 °C in the presence of the inhibitor, after which the reaction was started by the addition of 18 μL of 10× substrate (L-Arg for ADC and L-Orn for ODC). After incubation for 30 min (ADC) or 20 min (ODC) at +40 °C, 20 μL of 50% sulphosalicylic acid containing 50 μM diaminoheptane (internal standard) was added and the samples were analyzed for the content of agmatine (ADC) and Put (ODC) with HPLC as described previously. The kinetic parameters and IC50 values were determined with the aid of GraphPad Prism version 5.03 using nonlinear regression analysis.

[4] = tested on: Acremonium chrysogenum high-cephalosporin-yielding (HY) RNCM F-4081D; test: Fungal growth inhibition (drop-dilution, CD agar), HY strain; format: cell-based; conditions: Hapsidospora chrysogena, 336 h, read-out: Growth inhibition
Source text: Two strains of Acremonium chrysogenum were used in this study: the wild-type (Brotzu) isolate ATCC 11550 (WT) and high-cephalosporin-yielding RNCM F-4081D (HY), derived from the WT [37]. The cultivation conditions were the same as previously described. The filamentous fungi were cultivated on agarized Czapek-Dox (CD) medium (30 g/L sucrose, 2 g/L NaNO3, 1 g/L K2HPO4, 0.5 g/L MgSO4×7 H2O, 0.5 g/L KCl, 0.01 g/L FeSO4×7 H2O, 20 g/L agar, pH 7.0–7.4). To determine the toxic effect of AO-Agm, APA, DFMA and DFMO on the growth of fungal cells the drop-dilution method was used with some modifications as described earlier. Cells were collected from agar slants and diluted with 0.9% NaCl solution up to OD600 = 0.5 (basic concentration), followed by serial tenfold dilutions with the same solution. […] The inoculated Petri dishes were incubated for 21 days at 26 °C. The inhibitory effects of the compounds were measured every three days after inoculation and evaluated by measuring the ratio of colony growth on agarized CD medium supplemented with AO-Agm, APA, DFMA, or DFMO to the growth in the control (agarized CD medium without any additions). The formula: growth inhibition % = [(Dc − Dt)/Dc] × 100, where Dc indicates the colony diameter in control set, and Dt indicates the colony diameter in the treatment set that was used to determine the percent of fungal growth inhibition. The data recorded were measured in triplicate and repeated at least twice.

[5] = 0.1 mM PLP, 15 min preincubation, 0.15 mM L-Arg

## N=C(N)NCCCON [AO-Agm, 1-aminooxy-3-guanidinopropane]
[1]; AO-Agm 10 μM in the presence of SC (1 mM)
  Growth: 0.94 ± 0.03 Fold
[1]; AO-Agm 10 μM, no SC
  Growth: 0.96 ± 0.02 Fold
[1]; AO-Agm 0.01 mM and 0.1 mM
  Proliferation and intracellular polyamine pools of DU145 cells: without effect
[1]; AO-Agm 100 μM in the presence of SC (1 mM)
  Growth: 0.97 ± 0.02 Fold
[1]; AO-Agm 100 μM, no SC
  Growth: 0.96 ± 0.04 Fold
[1]; AO-Agm 1 mM
  Proliferation of DU145 cells: moderately inhibited
[1]; AO-Agm 1 mM in the presence of SC (1 mM)
  Growth: 0.45 ± 0.01 Fold
[1]; AO-Agm 1 mM, no SC
  Growth: 0.72 ± 0.04 Fold
E. coli ADC [2]; 15 min preincubation, 0.1 mM PLP
  inhibition at 15 µM: 100%
E. coli ADC [2]; buffer containing 0.1 mM PLP
  ADC activity after ultrafiltration and washing of the inhibitory complex: fully restored ADC activity
E. coli ADC [3]; 0.01 mM PLP, 15 min preincubation, 0.15 mM L-Arg
  IC50: 26 ± 1 nM
E. coli ADC [3]; 0.1 mM PLP, 0.15 mM L-Arg
  Effect of omitting the preincubation time on the efficiency of ADC inhibition: did not significantly alter
E. coli ADC [3]; [5]
  IC50: 30 ± 1 nM
  Potency as ADC inhibitor relative to DFMA (more potent): 330 times
E. coli ADC [3]; 1 mM PLP, 15 min preincubation, 0.15 mM L-Arg
  IC50: 89 ± 1 nM
E. coli ADC [3]; 0.15 mM L-Arg, 0.1 mM PLP
  inhibition at 0.1 µM: 25%
  inhibition at 0.5 µM: 95%
E. coli ADC [3]; 1.5 mM L-Arg, 0.1 mM PLP
  inhibition at 0.1 µM: ~5%
  inhibition at 0.5 µM: 60%
[4]
  inhibition at 5000 µM: 49%
